Assay results published in ChEMBL document CHEMBL5532743, “Discovery of a Pentapeptide Antagonist to Human Neuromedin U Receptor 1” (ACS Med Chem Lett, 2024).
Each block holds one compound with its values, some of them ahead of it. Activity calls are given as the source filed them. No cut-off for these calls is given here. Non-standard residues stand in square brackets, D forms with d. Residues, ends and D or L forms follow the SMILES beside them. *: point of attachment. NMeW = CN[C@@H](Cc1c[nH]c2ccccc12)C(=O)O; Phe(4-F) = N[C@@H](Cc1ccc(F)cc1)C(=O)O; NMeY = CN[C@@H](Cc1ccc(O)cc1)C(=O)O; Acetyl(2-thienyl) = O=C(Cc1cccs1)*; NMeF = CN[C@@H](Cc1ccccc1)C(=O)O; hArg = N=C(N)NCCCC[C@H](N)C(=O)O; αMeF = C[C@](N)(Cc1ccccc1)C(=O)O; Tic = O=C(O)[C@@H]1Cc2ccccc2CN1; NMeN = CN[C@@H](CC(N)=O)C(=O)O; NMeL = CN[C@@H](CC(C)C)C(=O)O; Pip = O=C(O)[C@@H]1CCCCN1

Tests used:
Neuromedin-U receptor 2 [1] = molecular target: T1, Neuromedin-U receptor 2 (Homo sapiens, UniProt Q9GZQ4); test: Antagonist potency at human NMUR2 stably expressed in CHO cells by Fluo-4 AM dye based calcium mobilization assay; type: functional, cell-based; details: read-out: pA2 (converted)
T1 sequence (Q9GZQ4 whole entry): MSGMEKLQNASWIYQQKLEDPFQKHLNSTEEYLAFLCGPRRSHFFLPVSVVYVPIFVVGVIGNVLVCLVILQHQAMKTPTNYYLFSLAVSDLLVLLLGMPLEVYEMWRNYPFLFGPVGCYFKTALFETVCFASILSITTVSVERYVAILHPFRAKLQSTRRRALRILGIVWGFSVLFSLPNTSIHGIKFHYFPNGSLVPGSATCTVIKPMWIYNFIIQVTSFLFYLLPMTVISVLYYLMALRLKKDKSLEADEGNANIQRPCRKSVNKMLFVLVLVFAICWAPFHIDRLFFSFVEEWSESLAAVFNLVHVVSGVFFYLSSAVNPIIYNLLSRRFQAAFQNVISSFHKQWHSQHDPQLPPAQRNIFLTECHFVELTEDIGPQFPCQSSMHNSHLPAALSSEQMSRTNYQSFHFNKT

[2] = Drug metabolism in rat serum assessed as (2S)-5-guanidino-2-[[(2S)-1-[(2S)-5-guanidino-2-[[(2S)-2-[[(2S)-3-(1H-indol-3-yl)-2-[methyl-[2-(2-thienyl)acetyl]amino]propanoyl]amino]-2-methyl-3-phenyl-propanoyl]amino]pentanoyl]pyrrolidine-2-carbonyl]amino]pentanoic acid formation by RP-HPLC analysis; type: ADME, cell-free
[3] = molecular target: Neuromedin-U receptor 2 (Mus musculus) (UniProt Q8BZ39); test: Antagonist activity at mouse NMUR2 expressed in HEK293 cells by Fluo-4 AM dye based calcium mobilization assay; type: functional, cell-based
Neuromedin-U receptor 2 (Mus musculus), sequence (Q8BZ39 whole entry): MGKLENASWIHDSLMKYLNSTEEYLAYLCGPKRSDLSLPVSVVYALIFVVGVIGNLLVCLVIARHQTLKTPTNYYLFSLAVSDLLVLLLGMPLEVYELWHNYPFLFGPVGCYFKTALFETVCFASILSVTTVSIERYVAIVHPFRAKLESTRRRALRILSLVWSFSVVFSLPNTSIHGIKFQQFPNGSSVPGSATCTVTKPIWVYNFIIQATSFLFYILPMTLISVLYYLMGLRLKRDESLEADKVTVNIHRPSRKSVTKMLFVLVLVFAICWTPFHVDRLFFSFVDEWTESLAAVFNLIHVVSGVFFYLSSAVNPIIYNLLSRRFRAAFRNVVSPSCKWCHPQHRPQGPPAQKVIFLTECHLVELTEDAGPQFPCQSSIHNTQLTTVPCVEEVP

Homo sapiens = organism: Homo sapiens; test: Selectivity ratio of human NMUR2 to human NMUR1
[4] = Stability in human plasma assessed drug recovery measured at 120 mins by RP-HPLC analysis; type: ADME, cell-free; details: read-out: Drug recovery
Neuromedin-U receptor 1 = molecular target: T2, Neuromedin-U receptor 1 (Homo sapiens, UniProt Q9HB89); test: Antagonist potency at human NMUR1 stably expressed in CHO cells by Fluo-4 AM dye based calcium mobilization assay; type: functional, cell-based; details: read-out: pA2 (converted)
T2 sequence (Q9HB89 whole entry): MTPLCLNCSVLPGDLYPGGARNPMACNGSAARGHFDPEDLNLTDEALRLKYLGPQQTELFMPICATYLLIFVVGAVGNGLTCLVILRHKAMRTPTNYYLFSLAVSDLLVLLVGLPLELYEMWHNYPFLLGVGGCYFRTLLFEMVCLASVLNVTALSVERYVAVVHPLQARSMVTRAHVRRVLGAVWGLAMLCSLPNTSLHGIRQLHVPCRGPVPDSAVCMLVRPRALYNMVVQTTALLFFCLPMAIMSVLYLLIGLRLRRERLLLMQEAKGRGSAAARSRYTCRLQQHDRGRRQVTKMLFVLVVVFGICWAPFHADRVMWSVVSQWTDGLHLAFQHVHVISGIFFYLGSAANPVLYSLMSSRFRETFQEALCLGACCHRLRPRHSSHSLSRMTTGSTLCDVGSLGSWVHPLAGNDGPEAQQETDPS

[5] = molecular target: T3, Neuromedin-U receptor 1 (Mus musculus) (UniProt O55040); test: Antagonist activity at mouse NMUR1 expressed in HEK293 cells by Fluo-4 AM dye based calcium mobilization assay; type: functional, cell-based
T3 sequence (whole entry): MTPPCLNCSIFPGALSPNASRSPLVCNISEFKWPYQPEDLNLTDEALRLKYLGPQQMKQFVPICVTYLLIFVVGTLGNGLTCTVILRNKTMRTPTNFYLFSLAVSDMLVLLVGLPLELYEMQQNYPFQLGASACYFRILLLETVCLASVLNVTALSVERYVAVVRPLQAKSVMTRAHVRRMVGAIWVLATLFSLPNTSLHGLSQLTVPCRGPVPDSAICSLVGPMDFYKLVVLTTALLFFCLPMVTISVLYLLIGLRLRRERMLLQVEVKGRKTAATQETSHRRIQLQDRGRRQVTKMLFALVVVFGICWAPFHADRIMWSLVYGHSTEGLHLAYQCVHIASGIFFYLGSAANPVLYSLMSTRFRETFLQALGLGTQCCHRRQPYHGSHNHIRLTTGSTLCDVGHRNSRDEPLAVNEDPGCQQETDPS

[6] = Drug degradation in human serum assessed as drug recovery incubated for 15 mins in presence of argatroban by RP-HPLC analysis; type: ADME, cell-free; details: with argatroban, read-out: Drug recovery
Neuromedin-U receptor 2 [7] = molecular target: T1, Neuromedin-U receptor 2; test: Binding affinity to human NMUR2 assessed as equilibrium binding constant; details: filed as antagonist
[8] = Drug degradation in rat serum by RP-HPLC analysis; type: ADME, cell-free
[9] = molecular target: T4, Neuromedin-U receptor 1 (Homo sapiens) (UniProt Q9HB89); test: Antagonist activity at human NMUR1 stably expressed in CHO cells by Fluo-4 AM dye based calcium mobilization assay; type: functional, cell-based; details: dose 30-300 nM
T4 sequence (whole entry): T2 sequence (Q9HB89 whole entry)

[10] = molecular target: T4, Neuromedin-U receptor 1 (Homo sapiens); test: Binding affinity to human NMUR1 assessed as equilibrium binding constant; details: filed as antagonist
Neuromedin-U receptor 2 [11] = molecular target: T1, Neuromedin-U receptor 2; test: Antagonist activity at human NMUR2 stably expressed in CHO cells by Fluo-4 AM dye based calcium mobilization assay; type: functional, cell-based; details: filed as antagonist, dose 30-300 nM
[12] = Retention time in human serum measured at 40 min by RP-HPLC analysis; type: ADME, cell-free
[13] = Drug degradation in human serum assessed as half life by RP-HPLC analysis; type: ADME, cell-free
[14] = Drug degradation in human serum assessed as drug recovery incubated for 15 mins in presence of aprotinin by RP-HPLC analysis; type: ADME, cell-free; details: 0.25 h
[15] = molecular target: T4, Neuromedin-U receptor 1 (Homo sapiens); test: Antagonist activity at human NMUR1 stably expressed in CHO cells at 100 to 1000 nM by Fluo-4 AM dye based calcium mobilization assay; type: functional, cell-based; details: filed as antagonist, dose 100-1000 nM

Kb (Neuromedin-U receptor 2 [1]): 417 nM | Drug metabolism [2]: Metabolite_Detected | Activity [3]: inactive | Selectivity ratio (Homo sapiens): 2.3 | remaining at 2 h [4]: 96.7% | Kb (Neuromedin-U receptor 1): 44.7 nM | Activity [5]: inactive | remaining at 0.25 h [6]: 97% | Kb (Neuromedin-U receptor 2 [7]): 421 nM | Stability [8]: Unstable | Activity ([9]; filed as antagonist): Dose-Dependent Effect | Kb [10]: 45 nM | Activity (Neuromedin-U receptor 2 [11]): Dose-Dependent Effect | Retention_time [12]: 48.27 min | half-life [13]: 5 min | Stability [14]: Stable
SMILES: CN(C(=O)Cc1cccs1)[C@@H](Cc1c[nH]c2ccccc12)C(=O)N[C@@](C)(Cc1ccccc1)C(=O)N[C@@H](CCCNC(=N)N)C(=O)N1CCC[C@H]1C(=O)N[C@@H](CCCNC(=N)N)C(N)=O ({Acetyl(2-thienyl)}-[NMeW][αMeF]RPR-NH2)

Activity ([9]; filed as antagonist): Active
SMILES: CN(C(=O)Cc1cccs1)[C@@H](Cc1ccc(O)cc1)C(=O)N[C@@H](Cc1ccccc1)C(=O)N[C@@H](CCCNC(=N)N)C(=O)N1CCC[C@H]1C(=O)N[C@@H](CCCNC(=N)N)C(=O)N[C@@H](CC(N)=O)C(N)=O ({Acetyl(2-thienyl)}-[NMeY]FRPRN-NH2)

Activity ([9]; filed as antagonist): Active
SMILES: CN(C(=O)Cc1cccs1)[C@@H](Cc1c[nH]c2ccccc12)C(=O)N[C@@H](Cc1ccccc1)C(=O)N[C@@H](CCCNC(=N)N)C(=O)N1CCC[C@H]1C(=O)N[C@@H](CCCNC(=N)N)C(=O)N[C@@H](CCC(N)=O)C(N)=O ({Acetyl(2-thienyl)}-[NMeW]FRPRQ-NH2)

Activity ([9]; filed as antagonist): Active
SMILES: CN(C(=O)Cc1cccs1)[C@@H](Cc1c[nH]c2ccccc12)C(=O)N[C@@H](Cc1ccccc1)C(=O)N[C@@H](CCCNC(=N)N)C(=O)N1CCC[C@H]1C(=O)N[C@@H](CCCNC(=N)N)C(=O)N[C@@H](CC(=O)O)C(N)=O ({Acetyl(2-thienyl)}-[NMeW]FRPRD-NH2)

Activity ([9]; filed as antagonist): Active | Activity (Neuromedin-U receptor 2 [11]): Active
SMILES: CN(C(=O)Cc1cccs1)[C@@H](Cc1c[nH]c2ccccc12)C(=O)N[C@@H](Cc1ccccc1)C(=O)N[C@@H](CCCNC(=N)N)C(=O)N1CCC[C@H]1C(N)=O ({Acetyl(2-thienyl)}-[NMeW]FRP-NH2)

Selectivity ratio (Homo sapiens): 2
SMILES: CN(C(=O)Cc1cccs1)[C@@H](Cc1c[nH]c2ccccc12)C(=O)N1Cc2ccccc2C[C@H]1C(=O)N[C@@H](CCCNC(=N)N)C(=O)N1CCC[C@H]1C(=O)N[C@@H](CCCNC(=N)N)C(N)=O ({Acetyl(2-thienyl)}-[NMeW][Tic]RPR-NH2)

Activity ([9]; filed as antagonist): Active | Activity (Neuromedin-U receptor 2 [11]): Active
SMILES: CN(C(=O)Cc1cccs1)[C@@H](Cc1c[nH]c2ccccc12)C(=O)N[C@@H](Cc1ccccc1)C(=O)N[C@@H](CCCNC(=N)N)C(=O)N1CCC[C@H]1C(=O)N[C@@H](CCCNC(=N)N)C(=O)O ({Acetyl(2-thienyl)}-[NMeW]FRPR-OH)

Selectivity ratio (Homo sapiens): 2.1 | Activity ([9]; filed as antagonist): Active
SMILES: CN(C(=O)Cc1cccs1)[C@@H](Cc1c[nH]c2ccccc12)C(=O)N[C@@H](Cc1ccccc1)C(=O)N[C@@H](CCCNC(=N)N)C(=O)N1CCC[C@H]1C(=O)N[C@@H](CCCNC(=N)N)C(N)=O ({Acetyl(2-thienyl)}-[NMeW]FRPR-NH2)

Activity ([9]; filed as antagonist): Active
SMILES: CN(C(=O)Cc1cccs1)[C@@H](Cc1c[nH]c2ccccc12)C(=O)N[C@@H](Cc1c[nH]c2ccccc12)C(=O)N[C@@H](CCCNC(=N)N)C(=O)N1CCC[C@H]1C(=O)N[C@@H](CCCNC(=N)N)C(=O)N[C@@H](CC(N)=O)C(N)=O ({Acetyl(2-thienyl)}-[NMeW]WRPRN-NH2)

Activity ([9]; filed as antagonist): Active
SMILES: CN(C(=O)Cc1cccs1)[C@@H](Cc1c[nH]c2ccccc12)C(=O)N[C@@H](Cc1ccccc1)C(=O)N[C@@H](CCCNC(=N)N)C(=O)N1CCC[C@H]1C(=O)N[C@@H](CCCNC(=N)N)C(=O)N[C@@H](CC(N)=O)C(N)=O ({Acetyl(2-thienyl)}-[NMeW]FRPRN-NH2)

Activity ([9]; filed as antagonist): Active
SMILES: CC(C)C[C@@H](C(=O)N[C@@H](Cc1ccccc1)C(=O)N[C@@H](CCCNC(=N)N)C(=O)N1CCC[C@H]1C(=O)N[C@@H](CCCNC(=N)N)C(=O)N[C@@H](CC(N)=O)C(N)=O)N(C)C(=O)Cc1cccs1 ({Acetyl(2-thienyl)}-[NMeL]FRPRN-NH2)

Activity ([9]; filed as antagonist): Active | Activity (Neuromedin-U receptor 2 [11]): Active
SMILES: CN(C(=O)Cc1cccs1)[C@@H](Cc1c[nH]c2ccccc12)C(=O)N[C@@H](Cc1ccccc1)C(=O)N[C@@H](CCCNC(=N)N)C(=O)N1CCC[C@H]1C(=O)N[C@@H](CCCCNC(=N)N)C(N)=O ({Acetyl(2-thienyl)}-[NMeW]FRP[hArg]-NH2)

Activity ([9]; filed as antagonist): Active
SMILES: CN(C(=O)Cc1cccs1)[C@@H](Cc1ccccc1)C(=O)N[C@@H](Cc1ccccc1)C(=O)N[C@@H](CCCNC(=N)N)C(=O)N1CCC[C@H]1C(=O)N[C@@H](CCCNC(=N)N)C(=O)N[C@@H](CC(N)=O)C(N)=O ({Acetyl(2-thienyl)}-[NMeF]FRPRN-NH2)

Kb (Neuromedin-U receptor 2 [1]): 41.7 nM | Activity [3]: inactive | Kb (Neuromedin-U receptor 1): 6.46 nM | Activity [5]: inactive | Kb (Neuromedin-U receptor 2 [7]): 41 nM | Activity ([9]; filed as antagonist): Active | Kb [10]: 6.4 nM | Activity (Neuromedin-U receptor 2 [11]): Active | half-life [13]: 1.9 min | Activity [15]: Active
SMILES: CN(C(=O)Cc1cccs1)[C@@H](Cc1c[nH]c2ccccc12)C(=O)N[C@@H](Cc1ccc(F)cc1)C(=O)N[C@@H](CCCNC(=N)N)C(=O)N1CCC[C@H]1C(=O)N[C@@H](CCCNC(=N)N)C(N)=O ({Acetyl(2-thienyl)}-[NMeW][Phe(4-F)]RPR-NH2)

Activity ([9]; filed as antagonist): Active
SMILES: CC(C)C[C@H](NC(=O)[C@H](Cc1c[nH]c2ccccc12)N(C)C(=O)Cc1cccs1)C(=O)N[C@@H](CCCNC(=N)N)C(=O)N1CCC[C@H]1C(=O)N[C@@H](CCCNC(=N)N)C(=O)N[C@@H](CC(N)=O)C(N)=O ({Acetyl(2-thienyl)}-[NMeW]LRPRN-NH2)

Activity [9]: inactive
SMILES: CN(C(=O)Cc1cccs1)[C@@H](Cc1c[nH]c2ccccc12)C(=O)N[C@@H](Cc1ccccc1)C(=O)N[C@@H](CCCNC(=N)N)C(=O)N1CCC[C@H]1C(=O)N[C@@H](CCCCN)C(=O)N[C@@H](CC(N)=O)C(N)=O ({Acetyl(2-thienyl)}-[NMeW]FRPKN-NH2)

Activity ([9]; filed as antagonist): Active
SMILES: CN(C(=O)Cc1cccs1)[C@@H](CC(N)=O)C(=O)N[C@@H](Cc1ccccc1)C(=O)N[C@@H](CCCNC(=N)N)C(=O)N1CCC[C@H]1C(=O)N[C@@H](CCCNC(=N)N)C(=O)N[C@@H](CC(N)=O)C(N)=O ({Acetyl(2-thienyl)}-[NMeN]FRPRN-NH2)

Activity ([9]; filed as antagonist): Active
SMILES: CN(C(=O)Cc1cccs1)[C@@H](Cc1c[nH]c2ccccc12)C(=O)N[C@@H](Cc1ccccc1)C(=O)N[C@@H](CCCNC(=N)N)C(=O)N1CCC[C@H]1C(=O)N[C@@H](CCCNC(=N)N)C(=O)N[C@@H](CC(N)=O)C(=O)O ({Acetyl(2-thienyl)}-[NMeW]FRPRN-OH)

Activity ([9]; filed as antagonist): Active
SMILES: CN(C(=O)Cc1cccs1)[C@@H](Cc1c[nH]c2ccccc12)C(=O)N[C@@H](Cc1ccccc1)C(=O)N[C@@H](CCCNC(=N)N)C(=O)N1CCCC[C@H]1C(=O)N[C@@H](CCCNC(=N)N)C(=O)N[C@@H](CC(N)=O)C(N)=O ({Acetyl(2-thienyl)}-[NMeW]FR[Pip]RN-NH2)
